Laboratory results from ChEMBL document CHEMBL1201862, “PubChem BioAssay data set” (2004).
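48-hour exposure; five concentrations; linearly interpolated endpoints. The concentration for 50% growth inhibition is given as GI50.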 The source made the active and inactive calls. Cut-off read from the data, not from the text of the source: active = GI50 up to about 1.1 µM and inactive = higher.

Assays:
Experiment in all cases: NCI tumour cell line growth inhibition, 48 h
UACC-257 = test system: UACC-257
HT-29 = test system: HT-29
RXF 393 = test system: RXF 393
HL-60 = test system: HL-60
M14 = test system: M14
OVCAR-5 = test system: OVCAR-5
HOP-62 = test system: HOP-62
A549 = test system: A549
MOLT-4 = test system: MOLT-4
DU-145 = test system: DU-145
SW-620 = test system: SW-620
OVCAR-4 = test system: OVCAR-4
OVCAR-3 = test system: OVCAR-3
SK-MEL-28 = test system: SK-MEL-28
COLO 205 = test system: COLO 205
786-0 = test system: 786-0
KM12 = test system: KM12
NCI-H226 = test system: NCI-H226
TK-10 = test system: TK-10
NCI-H522 = test system: NCI-H522

Row | SMILES | GI50 (UACC-257) | GI50 (HT-29) | GI50 (RXF 393) | GI50 (HL-60) | GI50 (M14) | GI50 (OVCAR-5) | GI50 (HOP-62) | GI50 (A549) | GI50 (MOLT-4) | GI50 (DU-145) | GI50 (SW-620) | GI50 (OVCAR-4) | GI50 (OVCAR-3) | GI50 (SK-MEL-28) | GI50 (COLO 205) | GI50 (786-0) | GI50 (KM12) | GI50 (NCI-H226) | GI50 (TK-10) | GI50 (NCI-H522)
1 | CCOC(=O)c1cccc(/N=N/Nc2cccc(C(=O)OCC)c2)c1 | 56.9 µM (inactive) | 52.8 µM (inactive) | 19.1 µM (inactive) | > 100 µM (inactive) | > 100 µM (inactive) | 78.7 µM (inactive) | 9.12 µM (inactive) | 74.5 µM (inactive) | > 100 µM (inactive) | > 100 µM (inactive) | 68.7 µM (inactive) | 20.9 µM (inactive) | 26.8 µM (inactive) | > 100 µM (inactive) | > 100 µM (inactive) | 17.9 µM (inactive) | > 100 µM (inactive) | 43.5 µM (inactive) | 27.5 µM (inactive) | 23.9 µM (inactive)
2 | COc1cc(OC)c2nc3occc3c(OC)c2c1 | > 100 µM (inactive) | > 100 µM (inactive) | 80 µM (inactive) | 94.8 µM (inactive) | > 100 µM (inactive) | > 100 µM (inactive) | > 100 µM (inactive) | > 100 µM (inactive) | 61.9 µM (inactive) | > 100 µM (inactive) | > 100 µM (inactive) | 37.1 µM (inactive) | > 100 µM (inactive) | > 100 µM (inactive) | > 100 µM (inactive) | 96.4 µM (inactive) | > 100 µM (inactive) | > 100 µM (inactive) | > 100 µM (inactive) | > 100 µM (inactive)
3 | N=C(N)N/N=C(\c1ccc(F)cc1)c1ccc(C(F)(F)F)cc1 | 1.16 µM (inactive) | 0.412 µM (active) | 0.22 µM (active) | 0.213 µM (active) | 0.298 µM (active) | 0.497 µM (active) | 0.273 µM (active) | 0.412 µM (active) | 0.358 µM (active) | 0.538 µM (active) | 0.254 µM (active) | 1.1 µM (active) | 0.33 µM (active) | 0.94 µM (active) | 0.294 µM (active) | 0.294 µM (active) | 0.203 µM (active) | 0.348 µM (active) | 1.66 µM (inactive) | 0.135 µM (active)
4 | CNC(=O)NC(CCCCNC(=O)OCc1ccccc1)C(=O)OCc1ccccc1 (stereo not given) | 16.9 µM (inactive) | > 100 µM (inactive) | 27.9 µM (inactive) | 26.2 µM (inactive) | 19.5 µM (inactive) | > 61.4 µM (inactive) | > 100 µM (inactive) | > 82 µM (inactive) | 19 µM (inactive) | > 100 µM (inactive) | > 97.5 µM (inactive) | 76.4 µM (inactive) | 21.1 µM (inactive) | 19.8 µM (inactive) | 16.3 µM (inactive) | 80.2 µM (inactive) | > 100 µM (inactive) | 42.9 µM (inactive) | 38.3 µM (inactive) | 12.6 µM (inactive)
5 | COc1cc2c(cc1OC)C(=O)/C(=C/c1ccccc1)C2 | > 100 µM (inactive) | 45.3 µM (inactive) | > 34.8 µM (inactive) | 16.9 µM (inactive) | > 62.5 µM (inactive) | > 100 µM (inactive) | 52.5 µM (inactive) | > 100 µM (inactive) | 16.3 µM (inactive) | > 94.2 µM (inactive) | 94 µM (inactive) | > 85.5 µM (inactive) | > 100 µM (inactive) | > 100 µM (inactive) | > 100 µM (inactive) | 90.6 µM (inactive) | 60.8 µM (inactive) | > 81.8 µM (inactive) | > 100 µM (inactive) | 47 µM (inactive)
6 | O=c1[nH]nc(-c2ccccc2)n1/N=C\CC/C=N\n1c(-c2ccccc2)n[nH]c1=O | > 82.2 µM (inactive) | 19.4 µM (inactive) | > 67.5 µM (inactive) | 29.2 µM (inactive) | 20.6 µM (inactive) | 60 µM (inactive) | > 52.4 µM (inactive) | > 100 µM (inactive) | 20.1 µM (inactive) | > 59.2 µM (inactive) | 32.2 µM (inactive) | 52.4 µM (inactive) | 20.7 µM (inactive) | 23 µM (inactive) | 55 µM (inactive) | 26.5 µM (inactive) | 34.8 µM (inactive) | 24.5 µM (inactive) | > 100 µM (inactive) | > 94.2 µM (inactive)
7 | CCOC(=O)c1c(-c2ccccc2)c(OC)cn1C | > 10 µM (inactive) | > 10 µM (inactive) | > 10 µM (inactive) | > 10 µM (inactive) | > 10 µM (inactive) | > 10 µM (inactive) | > 10 µM (inactive) | > 10 µM (inactive) | > 10 µM (inactive) | > 10 µM (inactive) | > 10 µM (inactive) | > 10 µM (inactive) | > 10 µM (inactive) | > 10 µM (inactive) | > 10 µM (inactive) | > 10 µM (inactive) | > 10 µM (inactive) | > 10 µM (inactive) | > 10 µM (inactive) | > 10 µM (inactive)
8 | CC(C)(C)OC(=O)NC(CSCc1ccc(C(=O)c2ccccc2)cc1)C(=O)N1CCN(CCCCN2c3ccccc3Sc3cc(N=[N+]=[N-])ccc32)CC1 (stereo not given) | > 100 µM (inactive) | > 100 µM (inactive) | > 100 µM (inactive) | > 100 µM (inactive) | > 100 µM (inactive) | > 100 µM (inactive) | > 100 µM (inactive) | > 100 µM (inactive) | > 100 µM (inactive) | > 100 µM (inactive) | > 100 µM (inactive) | > 100 µM (inactive) | > 100 µM (inactive) | > 100 µM (inactive) | > 100 µM (inactive) | > 100 µM (inactive) | > 100 µM (inactive) | > 100 µM (inactive) | > 100 µM (inactive) | > 100 µM (inactive)
9 | Cc1ccc(/C=C2\N=C(N3CCCCC3)NC2=O)cc1 | > 100 µM (inactive) | 95.9 µM (inactive) | > 100 µM (inactive) | 71.1 µM (inactive) | > 100 µM (inactive) | > 100 µM (inactive) | > 100 µM (inactive) | > 100 µM (inactive) | > 100 µM (inactive) | > 100 µM (inactive) | > 100 µM (inactive) | > 100 µM (inactive) | > 100 µM (inactive) | > 100 µM (inactive) | > 100 µM (inactive) | > 100 µM (inactive) | > 100 µM (inactive) | > 100 µM (inactive) | > 100 µM (inactive) | 74.5 µM (inactive)
10 | COC(=O)C1=CC2CCCC1(O)C(C(C)=O)C2 (stereo not given) | > 100 µM (inactive) | > 100 µM (inactive) | > 70.1 µM (inactive) | 24.2 µM (inactive) | > 100 µM (inactive) | > 100 µM (inactive) | > 75 µM (inactive) | 51.9 µM (inactive) | 21.1 µM (inactive) | > 69.7 µM (inactive) | > 61.8 µM (inactive) | > 62.7 µM (inactive) | > 100 µM (inactive) | > 100 µM (inactive) | 39.8 µM (inactive) | 20.2 µM (inactive) | > 81.1 µM (inactive) | > 100 µM (inactive) | > 100 µM (inactive) | 15.5 µM (inactive)
11 | COc1cc(CNC(=O)[C@H](Cc2ccc(O)cn2)NC(C)=O)cc(OC)c1 | 65.6 µM (inactive) | 41 µM (inactive) | > 100 µM (inactive) | 19.5 µM (inactive) | 92.5 µM (inactive) | > 100 µM (inactive) | > 100 µM (inactive) | > 100 µM (inactive) | 57.8 µM (inactive) | > 100 µM (inactive) | > 100 µM (inactive) | > 100 µM (inactive) | 50.6 µM (inactive) | > 100 µM (inactive) | > 100 µM (inactive) | > 100 µM (inactive) | > 100 µM (inactive) | > 100 µM (inactive) | > 100 µM (inactive) | > 100 µM (inactive)
12 | O=C(O)Cc1cccc2c(=O)c3cccc([N+](=O)[O-])c3oc12 | > 100 µM (inactive) | > 100 µM (inactive) | > 100 µM (inactive) | > 100 µM (inactive) | > 100 µM (inactive) | > 100 µM (inactive) | > 100 µM (inactive) | > 100 µM (inactive) | > 100 µM (inactive) | > 100 µM (inactive) | > 100 µM (inactive) | > 100 µM (inactive) | > 100 µM (inactive) | > 100 µM (inactive) | > 100 µM (inactive) | > 100 µM (inactive) | > 100 µM (inactive) | > 100 µM (inactive) | > 100 µM (inactive) | > 100 µM (inactive)
13 | COC(=O)[C@]1(c2cc3ccccc3[nH]2)CC2CN(C(=O)OCc3ccccc3)C1C=C2OC (stereo not given in full) | 23 µM (inactive) | 25.7 µM (inactive) | 22.7 µM (inactive) | 22.8 µM (inactive) | 20.8 µM (inactive) | 21.3 µM (inactive) | 31 µM (inactive) | 31.5 µM (inactive) | 22.2 µM (inactive) | 35.5 µM (inactive) | 41.5 µM (inactive) | 24.9 µM (inactive) | 24 µM (inactive) | 38 µM (inactive) | 19 µM (inactive) | 36.7 µM (inactive) | 29 µM (inactive) | 23.1 µM (inactive) | 48.1 µM (inactive) | 27.2 µM (inactive)
